Data as given in ChEMBL document CHEMBL5584309, “Discovery of Novel Mcl-1 Inhibitors with a 3-Substituted-1H-indole-1-yl Moiety Binding to the P1-P3 Pockets to Induce Apoptosis in Acute Myeloid Leukemia Cells” (J Med Chem, 2024).
Each block holds one molecule with its values, some of them ahead of it. Activity calls are given as the source filed them. The rule behind the calls is not given here.

Key:
[1] = biological target: Induced myeloid leukemia cell differentiation protein Mcl-1 (Homo sapiens, UniProt Q07820); experiment: Inhibition of Mcl-1 in human THP-1 cells assessed as dissociation of Bim from Mcl-1 at 20 uM measured after 24 hrs by Co-immunoprecipitation (Co-IP) assay; type: cell-based
[2] = test system: HL-60; experiment: Induction of apoptosis in human HL-60 cells assessed as necrotic cells at 2.5 uM measured after 24 hrs by Annexin V-FITC/propidium iodide double staining based assay (reference value: 0.18%); type: functional
[3] = Toxicity in NOD SCID mouse assessed as change in body weight at 25 mg/kg, ip administered for 7 consecutive days; type: organism-based; settings: in vivo, 168 h, time 7 day
[4] = Cytotoxicity against rat H9c2 cells assessed as cell viability measured after 72 hrs by MTT assay; type: toxicity, cell-based
[5] = test system: HL-60; experiment: Induction of apoptosis in human HL-60 cells assessed as necrotic cells at 10 uM measured after 24 hrs by Annexin V-FITC/propidium iodide double staining based assay (reference value: 0.18%); type: functional
[6] = MRT (0 to t) in Sprague-Dawley rat at 5 mg/kg, iv measured upto 24 hrs by LC-MS/MS analysis; type: ADME, organism-based; settings: in vivo
[7] = AUC (0 to t) in Sprague-Dawley rat at 5 mg/kg, iv measured upto 24 hrs by LC-MS/MS analysis; type: ADME, organism-based; settings: in vivo
[8] = Cmax in Sprague-Dawley rat at 20 mg/kg, ip measured upto 24 hrs by LC-MS/MS analysis; type: ADME, organism-based; settings: in vivo
[9] = test system: HL-60; experiment: In vivo antitumor activity against human HL-60 cells xenografted in female NOD SCID mouse assessed as reduction in tumor weight at 80 mg/kg, ip once daily after 15 days of tumor inoculation treated for 12 days; type: functional, organism-based; settings: time 12.0 day
[10] = Half life in Sprague-Dawley rat at 5 mg/kg, iv measured upto 24 hrs by LC-MS/MS analysis; type: ADME, organism-based; settings: in vivo
[11] = test system: HL-60; experiment: In vivo antitumor activity against human HL-60 cells xenografted in female NOD SCID mouse assessed as tumor growth inhibition at 80 mg/kg, ip once daily after 15 days of tumor inoculation treated for 12 days relative to control; type: functional; settings: HL-60, 288 h, time 12 day, read-out: TGI
[12] = biological target: Bcl-2-like protein 1 (Homo sapiens, UniProt Q07817); experiment: Binding affinity to Bcl-xL (unknown origin) pre-incubated for 30 mins followed by addition FAM-peptide further incubated for 20 mins by fluorescence polarization-based binding assay
[13] = Toxicity in NOD SCID mouse xenografted with human HL-60 cells assessed as change in spleen tissue at 80 mg/kg, ip once daily after 15 days of tumor inoculation treated for 12 days; type: organism-based; settings: in vivo, 288 h, time 12 day
[14] = test system: THP-1; experiment: Induction of apoptosis in human THP-1 cells assessed as necrotic cells at 20 uM measured after 24 hrs by Annexin V-FITC/propidium iodide double staining based assay (reference value: 0.13%); type: functional
[15] = Metabolic stability in rat liver microsomes assessed as compound remaining measured after 45 mins by LC-MS/MS analysis; type: ADME, Microsome; settings: read-out: Stability
[16] = Toxicity in NOD SCID mouse assessed as change in lung tissue at 25 mg/kg, ip administered for 7 consecutive days by Hematoxylin-eosin (HE) staining based assay; type: organism-based; settings: in vivo, 168 h, time 7 day
[17] = Toxicity in NOD SCID mouse xenografted with human HL-60 cells assessed as change in lung tissue at 80 mg/kg, ip once daily after 15 days of tumor inoculation treated for 12 days; type: organism-based; settings: in vivo, 288 h, time 12 day
[18] = AUC (0 to t) in Sprague-Dawley rat at 20 mg/kg, ip measured upto 24 hrs by LC-MS/MS analysis; type: ADME, organism-based; settings: in vivo
[19] = test system: HL-60; experiment: Induction of apoptosis in human HL-60 cells assessed as viable cells at 5 uM measured after 24 hrs by Annexin V-FITC/propidium iodide double staining based assay (reference value: 92.68%); type: functional; settings: read-out: Activity
[20] = biological target: Apoptosis regulator Bcl-2 (Homo sapiens, UniProt P10415); experiment: Binding affinity to Bcl-2 (unknown origin) pre-incubated for 30 mins followed by addition FAM-peptide further incubated for 20 mins by fluorescence polarization-based binding assay
[21] = Toxicity in NOD SCID mouse xenografted with human THP-1 cells assessed as change in spleen tissue at 40 to 80 mg/kg, ip once daily after 10 days of tumor inoculation treated for 14 days relative to control; type: organism-based; settings: in vivo, 336 h, dose 40-80 mg/kg, time 14 day
[22] = Half life in Sprague-Dawley rat at 20 mg/kg, ip measured upto 24 hrs by LC-MS/MS analysis; type: ADME, organism-based; settings: in vivo
[23] = Tmax in Sprague-Dawley rat at 20 mg/kg, ip measured upto 24 hrs by LC-MS/MS analysis; type: ADME, organism-based; settings: in vivo
[24] = Metabolic stability in rat liver microsomes assessed as half life by LC-MS/MS analysis; type: ADME, Microsome
[25] = Metabolic stability in rat plasma assessed as compound remaining measured immediately after addition of compound by LC-MS/MS analysis; type: ADME, cell-free; settings: read-out: Stability
[26] = Metabolic stability in rat liver microsomes assessed as compound remaining measured after 5 mins by LC-MS/MS analysis; type: ADME, Microsome
[27] = test system: HL-60; experiment: In vivo antitumor activity against human HL-60 cells xenografted in female NOD SCID mouse assessed as tumor growth inhibition at 40 mg/kg, ip once daily after 15 days of tumor inoculation treated for 12 days relative to control; type: functional; settings: read-out: TGI
[28] = test system: HL-60; experiment: Antiproliferative activity against human HL-60 cells assessed as growth inhibition measured after 72 hrs by CCK-8 assay; type: functional, cell-based; settings: HL-60, 72 h
[29] = test system: HL-60; experiment: Induction of apoptosis in human HL-60 cells assessed as necrotic cells at 5 uM measured after 24 hrs by Annexin V-FITC/propidium iodide double staining based assay (reference value: 0.18%); type: functional
[30] = Toxicity in NOD SCID mouse xenografted with human THP-1 cells assessed as change in lung tissue at 40 to 80 mg/kg, ip once daily after 10 days of tumor inoculation treated for 14 days relative to control; type: organism-based; settings: in vivo, 336 h, dose 40-80 mg/kg, time 14 day
[31] = Toxicity in NOD SCID mouse xenografted with human HL-60 cells assessed as change in heart tissue at 80 mg/kg, ip once daily after 15 days of tumor inoculation treated for 12 days; type: organism-based; settings: in vivo, 288 h, time 12 day
[32] = Toxicity in NOD SCID mouse assessed as change in liver tissue at 25 mg/kg, ip administered for 7 consecutive days by Hematoxylin-eosin (HE) staining based assay; type: organism-based; settings: in vivo, 168 h, time 7 day
[33] = Toxicity in NOD SCID mouse assessed as change in kidney tissue at 25 mg/kg, ip administered for 7 consecutive days by Hematoxylin-eosin (HE) staining based assay; type: organism-based; settings: in vivo, 168 h, time 7 day
[34] = test system: HL-60; experiment: Induction of apoptosis in human HL-60 cells assessed as viable cells at 10 uM measured after 24 hrs by Annexin V-FITC/propidium iodide double staining based assay (reference value: 92.68%); type: functional; settings: read-out: Activity
[35] = MRT (0 to infinity) in Sprague-Dawley rat at 20 mg/kg, ip measured upto 24 hrs by LC-MS/MS analysis; type: ADME, organism-based; settings: in vivo

Bcl-2-like protein 1, sequence (Q07817 whole entry): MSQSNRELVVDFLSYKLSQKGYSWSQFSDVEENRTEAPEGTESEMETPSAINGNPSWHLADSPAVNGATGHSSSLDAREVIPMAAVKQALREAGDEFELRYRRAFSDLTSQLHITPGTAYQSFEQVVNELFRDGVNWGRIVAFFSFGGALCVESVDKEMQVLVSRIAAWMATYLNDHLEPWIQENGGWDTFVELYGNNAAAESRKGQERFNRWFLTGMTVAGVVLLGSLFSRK
Induced myeloid leukemia cell differentiation protein Mcl-1, sequence (Q07820 whole entry): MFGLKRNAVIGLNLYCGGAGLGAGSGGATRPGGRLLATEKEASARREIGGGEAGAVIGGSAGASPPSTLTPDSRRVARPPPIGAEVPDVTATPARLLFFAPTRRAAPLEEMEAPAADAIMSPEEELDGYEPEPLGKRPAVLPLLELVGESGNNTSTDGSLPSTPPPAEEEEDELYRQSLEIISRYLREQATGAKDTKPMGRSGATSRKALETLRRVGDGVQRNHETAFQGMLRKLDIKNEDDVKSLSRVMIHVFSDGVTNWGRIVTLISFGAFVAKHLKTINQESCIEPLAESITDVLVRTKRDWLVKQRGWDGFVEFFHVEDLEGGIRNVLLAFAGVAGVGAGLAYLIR
Apoptosis regulator Bcl-2, sequence (P10415 whole entry): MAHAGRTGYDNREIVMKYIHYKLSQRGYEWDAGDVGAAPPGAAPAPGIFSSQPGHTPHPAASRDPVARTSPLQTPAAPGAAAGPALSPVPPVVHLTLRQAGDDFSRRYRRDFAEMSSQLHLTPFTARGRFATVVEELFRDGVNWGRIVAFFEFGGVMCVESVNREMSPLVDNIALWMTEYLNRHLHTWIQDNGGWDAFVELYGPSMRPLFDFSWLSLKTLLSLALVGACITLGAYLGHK

Activity [1]: Active
MRT last at 24 h [6]: 1.14 h
AUC(0-t) at 24 h [7]: 18700 ng·h/mL
Cmax [8]: 6240 ng/mL
half-life [10]: 4.9 h
IC50 [12]: > 100 µM
remaining at 0.75 h [15]: 46%
AUC(0-t) at 24 h [18]: 54600 ng·h/mL
IC50 [20]: > 100 µM
half-life [22]: 4.1 h
Tmax [23]: 5.33 h
t1/2 ([24]; microsomes): 0.755 h
remaining at 0 min [25]: 100%
Stability ([26]; microsomes, 5 min): 69.3%
IC50 [28]: 5.2 µM
MRT inf [35]: 7.03 h
SMILES: Cc1cc(OCCCc2c(C(=O)O)n(CCN3CCOCC3)c3c(-c4ccccc4Cn4cc(CCN(CCN5CCOCC5)S(=O)(=O)c5ccc(F)cc5)c5ccccc54)cccc23)cc(C)c1Cl
Activity [2]: 0.16%
Activity [3]: Non-Toxic
IC50 at 72 h [4]: 17.9 µM
Activity [5]: 0.2%
Activity [9]: Active
inhibition in vivo at 80 mg/kg [11]: 63.7%
Activity [13]: Non-Toxic
Activity [14]: 0.52%
Activity [16]: Non-Toxic
Activity [17]: Non-Toxic
viability at 5 µM [19]: 81.9%
Activity [21]: Non-Toxic
inhibition in vivo at 40 mg/kg [27]: 46.1%
Activity [29]: 0.57%
Activity [30]: Non-Toxic
Activity [31]: Non-Toxic
Activity [32]: Non-Toxic
Activity [33]: Non-Toxic
viability at 10 µM [34]: 41.2%

Activity [1]: Active
IC50 [12]: > 100 µM
remaining at 0.75 h [15]: 43.7%
IC50 [20]: > 100 µM
half-life ([24]; liver microsomes): 0.662 h
remaining at 0 min [25]: 100%
remaining at 5 min ([26]; liver microsomes, read-out: Stability): 77.1%
IC50 [28]: 5.53 µM
SMILES: Cc1nn(C)c(COc2ccc(N3CCN(S(=O)(=O)N(C)C)CC3)cc2)c1-c1cccc2c(CCCOc3cccc4ccccc34)c(C(=O)O)n(CCN3CCOCC3)c12
Activity [2]: 0.71%
Activity [5]: 4.86%
Activity [14]: 0.62%
viability at 5 µM [19]: 92.6%
Activity [29]: 1.28%
viability at 10 µM [34]: 33%
